Toxic doses and inconclusive results are not listed. Rule for the calls: active = survival T/C of 150% or more; inactive = T/C below 125% in these data.
Test system: P388 leukemia ip, CD2F1 mice, survival T/C
Assay: NCI In Vivo Anticancer Drug Screen. Data for tumor model P388 Leukemia (intraperitoneal) in CD2F1 (CDF1) mice
Details: endpoint: median survival time, higher = longer survival
Summary of the method: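 Mice carrying the transplanted tumor received test compound or vehicle. Survival was recorded in each group, and the value is the treated-group measurement divided by that of the vehicle-treated control group.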

[1] = dose: 60.0 mg/kg/injection, schedule: Q01DX005 (ip), vehicle: saline with Tween-80
[2] = dose: 120.0 mg/kg/injection, schedule: Q01DX005 (ip), vehicle: saline with Tween-80
[3] = dose: 240.0 mg/kg/injection, schedule: Q01DX005 (ip), vehicle: saline with Tween-80
[4] = dose: 50.0 mg/kg/injection, schedule: Q01DX005 (ip), vehicle: saline with Tween-80
[5] = dose: 100.0 mg/kg/injection, schedule: Q01DX005 (ip), vehicle: saline with Tween-80
[6] = dose: 200.0 mg/kg/injection, schedule: Q01DX005 (ip), vehicle: saline with Tween-80
[7] = dose: 25.0 mg/kg/injection, schedule: Q01DX005 (ip), vehicle: saline with Tween-80
[8] = dose: 100.0 mg/kg/injection, schedule: Q01DX009 (ip), vehicle: saline with Tween-80
[9] = dose: 200.0 mg/kg/injection, schedule: Q01DX009 (ip), vehicle: saline with Tween-80
[10] = dose: 50.0 mg/kg/injection, schedule: Q01DX005 (ip), vehicle: Klucel (hydroxypropylcellulose) (HPC)
[11] = dose: 100.0 mg/kg/injection, schedule: Q01DX005 (ip), vehicle: Klucel (hydroxypropylcellulose) (HPC)
[12] = dose: 200.0 mg/kg/injection, schedule: Q01DX005 (ip), vehicle: Klucel (hydroxypropylcellulose) (HPC)
[13] = dose: 400.0 mg/kg/injection, schedule: Q04DX003 (ip), vehicle: saline with Tween-80

Measured: T/C

C[C@]12CCC(=O)C[C@@H]1CC[C@@H]1[C@@H]2CC[C@]2(C)[C@@H]3OCCC[C@H]3C[C@@H]12
inactive: [1] 91 % of control | [2] 89 % of control | [3] 90 % of control

CCOC(=O)CC1(O)CSC(=C(C#N)C#N)S1 (stereo not drawn)
inactive: [4] 100 % of control | [5] 100 % of control | [6] 92 % of control

CCOC(=O)C1=NN(c2ccccc2)C(C)(C(=O)OC)C1 (stereo not drawn)
inactive: [1] 98 % of control | [2] 98 % of control | [3] 95 % of control

Cc1cccc(NCc2ccncc2)n1
inactive: dose: 6.25 mg/kg/injection, schedule: Q01DX005 (ip), vehicle: saline with Tween-80 92 % of control | dose: 12.5 mg/kg/injection, schedule: Q01DX005 (ip), vehicle: saline with Tween-80 102 % of control | [7] 100 % of control | [4] 100 % of control

CCC1(c2ccccc2)C(=O)N(C)C(=O)N(CCCl)C1=O (stereo not drawn)
inactive: dose: 50.0 mg/kg/injection, schedule: Q01DX009 (ip), vehicle: Klucel (hydroxypropylcellulose) (HPC) 96 % of control | dose: 100.0 mg/kg/injection, schedule: Q01DX009 (ip), vehicle: Klucel (hydroxypropylcellulose) (HPC) 98 % of control | dose: 200.0 mg/kg/injection, schedule: Q01DX009 (ip), vehicle: Klucel (hydroxypropylcellulose) (HPC) 93 % of control

CCOC(=O)CC1(C)SCCN1C(=O)OCC (stereo not drawn)
inactive: [7] 102 % of control | [4] 98 % of control | [5] 91 % of control | [6] 105 % of control

Cc1csc2ccccc12
inactive: dose: 50.0 mg/kg/injection, schedule: Q01DX009 (ip), vehicle: saline with Tween-80 102 % of control | [1] 101 % of control | [8] 119 % of control | [2] 100 % of control | [9] 92 % of control | [3] 100 % of control

CC1=C(C)/C(=C/c2ccccn2)NC1=O
inactive: dose: 60.0 mg/kg/injection, schedule: Q01DX005 (ip), vehicle: Klucel (hydroxypropylcellulose) (HPC) 98 % of control | dose: 120.0 mg/kg/injection, schedule: Q01DX005 (ip), vehicle: Klucel (hydroxypropylcellulose) (HPC) 105 % of control | dose: 240.0 mg/kg/injection, schedule: Q01DX005 (ip), vehicle: Klucel (hydroxypropylcellulose) (HPC) 98 % of control

O=C1Cc2ccccc2C2(CCCCC2)O1
inactive: [10] 100 % of control | [11] 98 % of control | [12] 100 % of control

BrC1(Br)C2CC3C(CC21)C3(Br)Br (stereo not drawn)
inactive: dose: 37.5 mg/kg/injection, schedule: Q01DX001 (ip), vehicle: saline with Tween-80 100 % of control | dose: 75.0 mg/kg/injection, schedule: Q01DX001 (ip), vehicle: saline with Tween-80 109 % of control | dose: 150.0 mg/kg/injection, schedule: Q01DX001 (ip), vehicle: saline with Tween-80 100 % of control

Cc1nc(-c2ccccc2)nc2c1nc(Cc1ccc(Cl)cc1)n2Nc1ccccc1
inactive: [10] 95 % of control | [11] 91 % of control | [12] 88 % of control

CC(=O)Nc1nnc(-c2cc(=O)c3cc(Cl)ccc3o2)s1
inactive: [4] 101 % of control | [5] 92 % of control | [6] 97 % of control

CCCCCCCCCC(C)(O)C#CC(C)(O)CCCCCCCCC (stereo not drawn)
inactive: [8] 87 % of control | [9] 95 % of control | [13] 86 % of control

CCCCP(=O)(CCCC)CCCC.CCCCP(=O)(CCCC)CCCC.CCCCP(=O)(CCCC)CCCC.CCCCP(=O)(CCCC)CCCC.[Fe+3].[O-][Cl+3]([O-])([O-])O
inactive: dose: 50.0 mg/kg/injection, schedule: Q01DX009 (ip), vehicle: saline + Tween-80 + alcohol 112 % of control | dose: 100.0 mg/kg/injection, schedule: Q01DX009 (ip), vehicle: saline + Tween-80 + alcohol 93 % of control | dose: 200.0 mg/kg/injection, schedule: Q01DX009 (ip), vehicle: saline + Tween-80 + alcohol 89 % of control

C=CCn1c(=S)[nH]c2ccccc2c1=O
inactive: dose: 100.0 mg/kg/injection, schedule: Q04DX003 (ip), vehicle: saline with Tween-80 90 % of control | dose: 200.0 mg/kg/injection, schedule: Q04DX003 (ip), vehicle: saline with Tween-80 90 % of control | [13] 90 % of control

O=C1CC2OC3C(C2O1)N(C(=O)OCc1ccccc1)C[C@H]3O (stereo partly drawn)
inactive: dose: 60.0 mg/kg/injection, schedule: Q01DX005 (ip), vehicle: saline 106 % of control | dose: 120.0 mg/kg/injection, schedule: Q01DX005 (ip), vehicle: saline 98 % of control | dose: 240.0 mg/kg/injection, schedule: Q01DX005 (ip), vehicle: saline 105 % of control

— PubChem BioAssay AID330 (DTP/NCI, 2004)
